Literature values as cited in US10231995B2, “Selenium-containing compositions and uses thereof” (SELO MEDICAL GMBH, priority 2001, dated 2019).
Where two headings read alike, the source gives them in different places.

For O=[Se](O)O [selenite], the “Eo standard redox potential” value (acidic medium) is given as −0.740 (acidic medium) Volt and the “Eo standard redox potential” value (basic medium) is given as “+0.366 (basic medium) Volt”.
